Results reported in US20100093696A1, “2-AMINO PYRIMIDINE COMPOUNDS” (Pfizer Inc., priority 2007, published 2010).
Counter-ions that a name gives are not always drawn.

Target: HSP-90 (Homo sapiens, UniProt P07900)
Assay: HSP-90 SPA (scintillation proximity assay) competition binding assay, tritiated Compound A radioligand (G2)
Conditions: read-out: (G2): % inhibition

Question: How did the inhibition at 10 µM turn out when CCOC(=O)N1Cc2nc(N)nc(Oc3ccc(Cl)cc3Br)c2C1 [Example 23, ethyl 2-amino-4-(2-bromo-4-chlorophenoxy)-5,7-dihydro-6H-pyrrolo[34-d]pyrimidine-6-carboxylate] was run?
Answer: The inhibition at 10 µM was 0%.

Question: Which inhibition at 10 µM does the source give for CCOC(=O)N1Cc2nc(N)nc(Oc3cc(C)c(Cl)c(C)c3)c2C1 [Example 25, ethyl 2-amino-4-(4-chloro-35-dimethylphenoxy)-5,7-dihydro-6H-pyrrolo[34-d]pyrimidine-6-carboxylate hydrochloride] here?
Answer: Its inhibition at 10 µM is 0%.

Question: CCOC(=O)N1Cc2nc(N)nc(Oc3ccc(Cl)cc3OC)c2C1 [Example 27, ethyl 2-amino-4-(4-chloro-2-methoxyphenoxy)-5,7-dihydro-6H-pyrrolo[3,4-d]pyrimidine-6-carboxylate] was tested. Which inhibition at 10 µM did it give?
Answer: The inhibition at 10 µM was 0%.

Question: Which inhibition at 10 µM does the source give for CCOC(=O)N1Cc2nc(N)nc(-n3ccc4ccc(F)cc43)c2C1 [Example 46, ethyl 2-amino-4-(6-fluoro-1H-indol-1-yl)-5,7-dihydro-6H-pyrrolo[3,4-d]pyrimidine-6-carboxylate] here?
Answer: The inhibition at 10 µM was 0%.
